Laboratory results published in US5840336A, “Two-phase matrix for sustained release drug delivery device” (Cygnus, Inc., priority 1995, dated 1998).

Tests used:
[1] = assay type: in vivo
Procedure: The effective dose for treating Parkinson's disease is estimated to be in the range of about 1 to 3 μg/kg/hr. Accordingly, for transdermal administration, the target flux of this drug (based on a 20 cm^2 delivery area) is estimated to be in the range of approximately 3-10 μg/cm^2 /hr.

[2] = pH 6
D2 = conditions: cited from earlier work
[3] = Solubility of the drug in pH 5.0 phosphate buffer receiver fluid; assay type: physicochemical

Compound	target flux [1]	effective dose for treating Parkinson's disease ([1]; estimated) [µg/kg/h]	skin flux from liquid formulations [2]	selective D2 agonist (D2)	solubility for the drug [3]
CCCN(CCc1cccs1)[C@H]1CCc2c(O)cccc2C1 [S(-)-2-(N-propyl-N-2-thienylethylamine)-5-hydroxytetralin]	3-10 μg/cm^2 /hr	1 to 3	at or above the effective range	selective D2 agonist	
Cc1cccc(CN2CCN(C)C[C@@H](NC(=O)c3n[nH]c4ccccc34)C2)c1.Cl.Cl [(R)-(-)-N-(1-Methyl-4-(3-methylbenzyl)hexahydro-1H-1,4-diazepin-6-yl)-1H-indazole-3-carboxamide dihydrochloride]					reasonable solubility
